In patent publication US20040110821A1, “GAL3 receptor antagonists for the treatment of affective disorders” (priority 2002, published 2004):

Experiments:
human GAL1 receptor = target: T1, human GAL1 receptor (Homo sapiens, UniProt P47211); test: Radioligand binding at cloned human GAL1 receptor; details: pyrimidines, Tables 1-3, read-out: Ki (nM) GalR1
T1 construct: expressed in transfected cells
T1 sequence (P47211 1-349): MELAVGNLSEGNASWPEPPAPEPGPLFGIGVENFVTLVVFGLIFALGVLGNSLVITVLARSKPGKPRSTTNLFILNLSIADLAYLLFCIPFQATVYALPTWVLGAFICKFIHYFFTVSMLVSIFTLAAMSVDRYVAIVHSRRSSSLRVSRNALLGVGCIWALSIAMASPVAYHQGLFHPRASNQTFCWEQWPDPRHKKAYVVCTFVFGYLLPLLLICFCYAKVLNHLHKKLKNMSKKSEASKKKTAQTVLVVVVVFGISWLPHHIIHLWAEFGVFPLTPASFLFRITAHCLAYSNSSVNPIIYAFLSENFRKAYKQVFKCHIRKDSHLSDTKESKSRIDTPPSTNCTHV
Protocol: (§1) The present invention provides for a method of determining the binding affinity of a GAL3 antagonist, wherein the GAL3 antagonist is dissolved in a “suitable solvent”. A “suitable solvent” means one which permits the measurement of binding affinity of the GAL3 antagonist to the human GAL3 receptor at concentrations less than 1 μM, preferably less than 100 nM. Examples of solvents include, but are not limited to, DMSO, ethanol, N,N-dimethylacetamide, or water. For indolones, the preferred solvent is 3% DMSO (final concentration in the assay). For pyrimidines, the preferred solvent is 1% ethanol/0.09% polypuronic acid F-127 (final concentration in the assay). For any other type of compounds, the preferred solvent is the solvent which permits the measurement of binding affinity of a GAL3 antagonist at the lowest concentration. Once a suitable solvent is ascertained for the binding assay of the human GAL3 receptor, the same solvent is used in assays to determine the binding affinity for instance, at the GAL1 receptor.
(§2) The binding properties of the pyrimidines of the present invention were evaluated at the cloned human galanin receptors, GAL1, GAL2, and GAL3, using protocols described herein.
(§3) The binding properties of the indolones of the present invention were evaluated at the cloned human galanin receptors, GAL1, GAL2, and GAL3, using protocols described herein.
(§4) LM(tk-) cells were stably transfected with the human GAL1 or GAL3 receptor. CHO cells were stably transfected with the human GAL2 receptor.
(§5) cDNAs for the human and rat GAL1, and human and rat GAL3 receptors were transfected with a G-418 resistant gene into the mouse fibroblast LM(tk-) cell line by a calcium phosphate transfection method (Cullen, 1967). Stably transfected cells were selected with G-418. Human and rat GAL2 receptors were similarly transfected into CHO cells.
(§6) Membranes were harvested from stably transfected LM(tk-) cells. Adherent cells were washed twice in ice-cold phosphate buffered saline (138 mM NaCl, 8.1 mM Na2HPO4, 2.5 mM KCl, 1.2 mM KH2PO4, 0.9 mM CaCl2, 0.5 mM MgCl2, pH 7.4) and lysed by sonication in ice-cold sonication buffer (20 mM Tris-HCl, 5 mM EDTA, pH 7.7). Large particles and debris were cleared by low speed centrifugation (200×g, 5 min, 4° C.). Membranes were collected from the supernatant fraction by centrifugation (32,000×g, 18 min, 4° C.), washed with ice-cold hypotonic buffer, and collected again by centrifugation (32,000×g, 18 min, 4° C.). The final membrane pellet was resuspended by sonication into a small volume of ice-cold binding buffer (−1 ml for every 5 plates: 10 mM NaCl, 20 mM HEPES, 0.22 mM KH2PO4, 1.26 mM CaCl2, 0.81 mM MgSO4, pH 7.4). Protein concentration was measured by the Bradford method (Bradford, 1976) using Bio-Rad Reagent, with bovine serum albumin as a standard. Membranes were held on ice for up to one hour and used fresh, or flash frozen and stored in liquid nitrogen. Membranes were prepared similarly from CHO cells.
(§7) Galanin Receptors: Binding assays were performed according to the following published methods: human GAL3 (PCT International Publication No. WO 98/15570), human GAL1 (PCT International Publication No. WO 95/2260) human GAL2 (PCT International Publication No. WO 97/26853).
(§8) Binding data were analyzed using nonlinear regression and statistical techniques available in the GraphPAD Prism package (San Diego, Calif.). Enzymatic assay data were derived from a standard curve of reference compound data.

human GAL2 receptor = target: T2, human GAL2 receptor (Homo sapiens, UniProt O43603); test: Radioligand binding at cloned human GAL2 receptor; details: pyrimidines, Tables 1-3, read-out: Ki (nM) GalR2
T2 construct: expressed in transfected cells
T2 sequence (O43603 1-387): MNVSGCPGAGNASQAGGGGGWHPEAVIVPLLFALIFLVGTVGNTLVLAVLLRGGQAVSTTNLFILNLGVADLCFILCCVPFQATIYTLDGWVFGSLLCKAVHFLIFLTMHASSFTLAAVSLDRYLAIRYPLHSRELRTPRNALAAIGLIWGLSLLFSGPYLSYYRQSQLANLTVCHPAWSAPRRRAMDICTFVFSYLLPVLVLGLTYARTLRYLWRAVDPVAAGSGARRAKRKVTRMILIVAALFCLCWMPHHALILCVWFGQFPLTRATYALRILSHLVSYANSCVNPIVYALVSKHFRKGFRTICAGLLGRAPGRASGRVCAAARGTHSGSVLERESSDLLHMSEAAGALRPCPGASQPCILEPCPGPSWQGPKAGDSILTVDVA
Protocol: as §1, §2, §3, §4, §5, §6, §7, §8

human GAL3 receptor = target: T3, human GAL3 receptor (Homo sapiens, UniProt O60755); test: Radioligand binding at cloned human GAL3 receptor; details: cloned human GAL3 receptor; indolones, Table 4a; read-out: Ki (nM) Gal3
T3 construct: expressed in transfected cells
T3 sequence (O60755 1-368): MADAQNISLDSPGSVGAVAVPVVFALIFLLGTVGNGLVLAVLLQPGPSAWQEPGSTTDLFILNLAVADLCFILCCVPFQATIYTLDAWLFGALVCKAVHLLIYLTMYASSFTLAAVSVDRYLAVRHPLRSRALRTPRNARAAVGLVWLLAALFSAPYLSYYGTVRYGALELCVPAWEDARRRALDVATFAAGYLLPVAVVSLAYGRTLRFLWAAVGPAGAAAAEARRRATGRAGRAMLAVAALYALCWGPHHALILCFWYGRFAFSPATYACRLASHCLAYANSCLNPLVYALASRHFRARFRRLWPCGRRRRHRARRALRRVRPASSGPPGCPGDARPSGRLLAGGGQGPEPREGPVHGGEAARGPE
Protocol: as §1, §2, §3, §4, §5, §6, §7, §8

Row | Structure (SMILES) | Ki (human GAL1 receptor) | Ki (human GAL2 receptor) | Ki (human GAL3 receptor)
1 | Cc1ccc(Nc2cc(N3CCCCC3)nc(NCCc3c[nH]c4ccc(C)cc34)n2)cc1 [Example 8] | > 5000 nM | – | –
2 | Cc1ccc(Nc2cc(N3CCCCC3)nc(N3CCN(c4cccc(C(F)(F)F)n4)CC3)n2)cc1 [Example 33] | > 5000 nM | > 5000 nM | –
3 | Cc1ccc(Nc2cc(N3CCCCC3)nc(N(C)CCc3c[nH]c4ccccc34)n2)cc1Cl [Example 16] | > 5000 nM | > 5000 nM | –
4 | Cc1ccc(Nc2cc(N3CCCCC3)nc(Nc3ccccc3)n2)cc1 [Example 3] | > 5000 nM | > 5000 nM | –
5 | Cc1ccc(Nc2cc(N3CCCCC3)nc(N3CCC(c4ccccc4)CC3)n2)cc1 [Example 24] | > 5000 nM | – | –
6 | Cc1ccc(Nc2cc(N3CCCCC3)nc(N(C)c3ccccc3)n2)cc1 [Example 6] | > 5000 nM | – | –
7 | Cc1ccc(Nc2cc(N3CCCCC3)nc(N3CCN(Cc4ccccc4)CC3)n2)cc1 [Example 23] | > 5000 nM | > 5000 nM | –
8 | CCc1ccccc1N1CCN(c2nc(Nc3ccc(C)cc3)cc(N3CCCCC3)n2)CC1 [Example 26] | > 5000 nM | – | –
9 | Cc1ccc(Nc2cc(N3CCCCC3)nc(N3CCCc4ccccc43)n2)cc1 [Example 40] | > 5000 nM | – | –
10 | Cc1ccc(Nc2cc(N3CCCCC3)nc(NCCc3c[nH]c4ccccc34)n2)cc1 [Example 10] | > 5000 nM | – | –
11 | COc1ccc2[nH]cc(CCNc3nc(Nc4ccc(C)cc4)cc(N4CCCCC4)n3)c2c1 [Example 9] | > 5000 nM | – | –
12 | COc1cccc(Nc2cc(N3CCCCC3)nc(N(C)CCc3c[nH]c4ccccc34)n2)c1 [Example 17] | > 5000 nM | – | –
13 | COCCN(CCc1c[nH]c2ccccc12)c1nc(Nc2ccc(C)cc2)cc(N2CCCCC2)n1 [Example 19] | > 5000 nM | – | –
14 | Cc1ccc(Nc2cc(N3CCCCC3)nc(N3CCN(c4ncccc4C)CC3)n2)cc1 [Example 31] | > 5000 nM | – | –
15 | Cc1ccc(Nc2cc(N3CCCCC3)nc(N(C)CCc3c[nH]c4ccccc34)n2)cc1 [Example 11] | > 5000 nM | – | –
16 | Cc1ccc(Nc2cc(N3CCCCC3)nc(N3CCN(c4cc(C(F)(F)F)ccn4)CC3)n2)cc1 [Example 32] | > 5000 nM | – | –
17 | Cc1ccc(Nc2cc(N3CCCCC3)nc(N3CCc4ccccc43)n2)cc1 [Example 39] | > 5000 nM | > 5000 nM | –
18 | Cc1ccc(Nc2cc(N3CCCCC3)nc(N3CCN(c4ccccn4)CC3)n2)cc1 [Example 30] | > 5000 nM | – | –
19 | Cc1ccc(Nc2cc(N3CCCCC3)nc(Nc3ccc(C)cc3)n2)cc1 [Example 4] | > 5000 nM | > 5000 nM | –
20 | CN(CCc1c[nH]c2ccccc12)c1nc(Nc2cccc(F)c2)cc(N2CCCCC2)n1 [Example 14] | > 5000 nM | – | –
21 | Cc1ccc(Nc2cc(N3CCCCC3)nc(N3CCN(c4ncccn4)CC3)n2)cc1 [Example 37] | > 5000 nM | – | –

Other lines, results leading:

Row | Ki (human GAL1 receptor) | Ki (human GAL2 receptor) | Ki (human GAL3 receptor) | Structure (SMILES)
22 | > 5000 nM | > 5000 nM | – | Cc1ccc(Nc2nc(Nc3cccc(C)c3)cc(N(C)C)n2)cc1 [Example 53]
23 | > 5000 nM | > 5000 nM | – | CN(C)c1cc(Nc2cccc(F)c2)nc(Nc2ccccc2)n1 [Example 57]
24 | > 5000 nM | > 5000 nM | – | Cc1ccc(Nc2cc(N(C)C)nc(N3CCN(c4cccc(C)c4)CC3)n2)cc1 [Example 86]
25 | > 5000 nM | > 5000 nM | – | Cc1ccc(Nc2cc(N(C)C)nc(N3CCN(S(=O)(=O)c4ccc(C)cc4)CC3)n2)cc1 [Example 84]
26 | > 5000 nM | – | – | Cc1ccc(Nc2cc(N(C)C)nc(N(C)C3CCCCC3)n2)cc1 [Example 73]
27 | > 5000 nM | – | – | Cc1ccc(Nc2cc(N(C)C)nc(N3CCC(O)(c4ccccc4)CC3)n2)cc1 [Example 80]
28 | – | – | 138 nM | CN1C(=O)c2ccc(/N=C3\C(=O)N(c4ccccc4)c4ccccc43)cc2C1=O [Example 110, 2-METHYL-5-[(2-OXO-1-PHENYL-1,2-DIHYDRO-3H-INDOL-3-YLIDENE)AMINO]-2H—ISOINDOLE-1,3(2H)-DIONE]
29 | > 5000 nM | > 5000 nM | – | CN(C)c1cc(Nc2ccc(Br)cc2)nc(Nc2ccccc2)n1 [Example 59]
30 | > 5000 nM | – | – | Cc1ccc(Nc2cc(N3CCCCC3)nc(N3CCC(O)(c4ccccc4)CC3)n2)cc1 [Example 44]
31 | > 5000 nM | – | – | Cc1ccc(Nc2cc(N(C)C)nc(N(C)c3ccc(C)cc3)n2)cc1 [Example 72]
32 | > 5000 nM | > 5000 nM | – | Cc1ccc(Nc2cc(N(C)C)nc(Nc3ccccc3)n2)cc1 [Example 54]
33 | > 5000 nM | > 5000 nM | – | Cc1ccc(Nc2cc(N(C)C)nc(Nc3ccc(C)cc3)n2)cc1 [Example 56]
34 | > 5000 nM | > 5000 nM | – | CN(C)c1cc(Nc2ccc(Oc3ccccc3)cc2)nc(Nc2ccccc2)n1 [Example 64]
35 | > 5000 nM | > 5000 nM | – | Cc1cccc(Nc2cc(N(C)C)nc(Nc3ccccc3)n2)c1 [Example 52]
36 | > 5000 nM | – | – | Cc1ccc(Nc2cc(N(C)C)nc(N3CCN(c4ccc(C)cc4)CC3)n2)cc1 [Example 87]
37 | > 5000 nM | > 5000 nM | – | CN(C)c1cc(Nc2ccccc2)nc(Nc2ccccc2)n1 [Example 50]
38 | > 5000 nM | > 5000 nM | – | CN(C)c1cc(Nc2ccc(C(C)(C)C)cc2)nc(Nc2ccccc2)n1 [Example 63]
39 | > 5000 nM | – | – | Cc1ccc(Nc2cc(N(C)C)nc(N3CCC(c4ccccc4)CC3)n2)cc1 [Example 81]
40 | > 5000 nM | – | – | COc1cc2c(cc1OC)CN(c1nc(Nc3ccc(C)cc3)cc(N3CCCCC3)n1)CC2 [Example 42]
41 | > 5000 nM | – | – | Cc1ccc(Nc2cc(N(C)C)nc(N3CCN(c4ccccc4C)CC3)n2)cc1 [Example 85]
42 | > 5000 nM | > 5000 nM | – | CN(C)c1cc(Nc2ccc3ccccc3c2)nc(Nc2ccccc2)n1 [Example 65]
43 | > 5000 nM | > 5000 nM | – | Cc1ccc(Nc2cc(N(C)C)nc(Nc3ccc(Cl)c(Cl)c3)n2)cc1 [Example 55]
44 | > 5000 nM | > 5000 nM | – | COCCN(CCOC)c1nc(Nc2ccc(C)cc2)cc(N2CCCCC2)n1 [Example 45]
45 | > 5000 nM | > 5000 nM | – | CN(C)c1cc(NC2CCCCC2)nc(Nc2ccccc2)n1 [Example 66]
46 | > 5000 nM | > 5000 nM | – | Cc1ccc(Nc2cc(N3CCCCC3)nc(N3Cc4cccc5cccc(c45)C3)n2)cc1 [Example 43]
